Legend:
[1] = system: HCV RNA replication in Huh-7 cells containing HCV sub-genomic replicons (Ava.5); assay: Inhibition of HCV RNA replication (replicon cells, RT and Q-PCR, normalised to GADPH); details: for EC50: Hepatitis C virus, 24 h, read-out: EC50 value (effective concentration at which HCV RNA replication was inhibited by 50%)
Procedure: Huh-7 cells containing HCV sub-genomic replicons (Ava.5) were maintained in DMEM supplemented with 10% heat-inactivated FCS in a humidified atmosphere containing 5% of CO2. The medium also contained 1 mg/mL G418 (an aminoglycosidic antibiotic agent obtained from Promega, WI) as a selective pressure for the maintenance of HCV replicon's RNA replication. […] Cells were treated with sesquiterpene lactones and control compounds at various concentrations. Then, cells were harvested after 24 hr of the treatment. Subsequently, total cellular RNA's were extracted and quantified as follows.
Total RNA of cells was extracted using RNeasy Mini Kit (QIAGEN). The concentration of total RNA was measured by absorption at 260 nm. […] RNA was added with RNase-free ddH2O to a final volume of 10.5 μL and denatured for 10 min at 65° C. Reverse transcription (RT) reactions were carried out at 42° C. for 1 hr using Expand-RT (Roche Biochemicals, Mannheim, Germany) in a total volume of 20 μL containing a previously denatured primer-RNA mixture, 1 mM each of deoxynucleotide triphosphates (dNTPs), 50 units reverse transcriptase, and 20 units RNase inhibitor (Promega, Madison, Wis.).
Quantitative PCR (Q-PCR) was carried out by LightCycler-DNA Master using SYBR Green 1 for real-time detection of double-stranded DNA (dsDNA) (Roche Diagnostics GmbH, Mannheim, Germany). The intensity of fluorescence was recorded versus PCR cycle numbers and the relative amounts of HCV RNA were calculated corresponding to the standard curve. The standard curve was derived from five serial dilutions of reference DNA, the corresponding cDNA of HCV RNA, under criteria recommended by the supplier.
The relative copy numbers HCV RNA and a house-keeping gene, glyceraldehyde-3-phosphate dehydrogenase (GADPH), were determined by Q-PCR utilizing the following primer sets:
PCR was performed as followed: (i) denaturing conditions: 95° C., 60 sec; (ii) amplification conditions: ramp to 95° C., 0 sec; 64° C., 10 sec; 72° C., 10 sec. The specificity of an amplification reaction was determined by performing a melting curve analysis with a temperature range from 65° C. to 95° C.
HCV RNA copy numbers were divided by their corresponding GADPH copy numbers in the same sample for normalization. Effect of sesquiterpene lactones on HCV RNA replication was represented by “relative copy number,” which was obtained by comparing HCV RNA copy numbers with sesquiterpene lactones treatment to HCV RNA copy numbers without sesquiterpene lactones treatment. The latter was designated as 100%. All measurements were performed in triplicates to reach statistical significance.

[2] = system: Huh-7 cells containing HCV sub-genomic replicons (Ava.5); assay: Inhibition of cell growth (MTS cell viability / cytotoxicity assay); details: Hepatitis C virus, read-out: IC50 value (concentration at which cell growth was inhibited by 50%)
Procedure: Huh-7 cells containing HCV sub-genomic replicons (Ava.5) were provided by Apath, LLC. […] Cells were maintained in Dulbecco's modified Eagle's medium (DMEM) supplemented with 10% fetal calf serum (FCS) in a humidified atmosphere containing 5% of CO2.
MTS and PMS, both in powder form, were purchased from Sigma or Promega. MTS was dissolved in PBS (2 mg/mL) and PMS (0.38 mg/mL) was dissolved in ddH2O as stock solutions. […] Prior to the assay, a 2 mL MTS/PMS solution containing MTS and PMS (20:1) was added to the cells with 8 mL of phenol red-free DMEM. The cell culture medium was then aspirated off, washed with PBS, and 100 μL of the MTS/PMS mixture was added into each well. After incubation at room temperature for 2 hr, optical densities of each sample were measured at OD490 with a 96-well microtiter plate reader. Data were obtained with six repeats for each treatment.

Molecule | EC50 [1] [µM] | further results
CC1=CCCC2(C)OC2C2OC(=O)C(CN3CCCCCC3)C2CC1 (centres unmarked) [Compound 48, 12-Azepan-1-ylmethyl-4,8-dimethyl-3,14-dioxa-tricyclo[9.3.0.02,4]tetradec-7-en-13-one] | ≤ 3 | 
CC1=CCCC2(C)OC2C2OC(=O)C(CN3CCCC3C(=O)O)C2CC1 (centres unmarked) [Compound 50, 1-(4,8-Dimethyl-13-oxo-3,14-dioxa-tricyclo[9.3.0.02,4]tetradec-7-en-12-ylmethyl)-pyrrolidine-2-carboxylic acid] | ≤ 3 | IC50 [2]: 8.1 µM
CCN(CC)CC1C(=O)OC2C1CCC(C)=CCCC1(C)OC21 (centres unmarked) [Compound 45, 12-Diethylaminomethyl-4,8-dimethyl-3,14-dioxa-tricyclo[9.3.0.02,4]tetradec-7-en-13-one] | ≤ 3 | 
CC1=CCCC2(C)OC2C2OC(=O)C(CN3CCOCC3)C2CC1 (centres unmarked) [Compound 49, 4,8-Dimethyl-12-morpholin-4-ylmethyl-3,14-dioxa-tricyclo[9.3.0.02,4]tetradec-7-en-13-one] | ≤ 6 | 
CC1=CCCC2(C)OC2C2OC(=O)C(CN(C)C)C2CC1 (centres unmarked) [Compound 44, 12-Dimethylaminomethyl-4,8-dimethyl-3,14-dioxa-tricyclo[9.3.0.02,4]tetradec-7-en-13-one] | ≤ 3 | 
CC1=CCCC2(C)OC2C2OC(=O)C(CN3CCCC3)C2CC1 (centres unmarked) [Compound 46, 4,8-Dimethyl-12-pyrrolidin-1-ylmethyl-3,14-dioxa-tricyclo[9.3.0.02,4]tetradec-7-en-13-one] | ≤ 3 | 
IFNα |  | inhibition of HCV RNA replication ([1]; 50 IU/1 mL of IFNα alone): 25%; inhibition of HCV RNA replication ([1]; 100 IU/mL of IFNα alone): 40%
CC1=CCCC2(C)OC2C2OC(=O)C(CSCC(N)C(=O)O)C2CC1 (centres unmarked) [Compound 53, 2-Amino-3-(4,8-dimethyl-13-oxo-3,14-dioxa-tricyclo[9.3.0.02,4]tetradec-7-en-12-ylmethylsulfanyl)-propionic acid] | ≤ 6 | 
CC1=CCCC2(C)OC2C2OC(=O)C(CN3CCCCC3)C2CC1 (centres unmarked) [Compound 47, 4,8-Dimethyl-12-piperidin-1-ylmethyl-3,14-dioxa-tricyclo[9.3.0.02,4]tetradec-7-en-13-one] | ≤ 3 | 

Reference: US20040229936A1, “Treatment of hepatitis C virus infection with sesquiterpene lactones” (priority 2003, published 2004)
